Data on one compound can be found in publication PMC10982999, “Structure-Guided Design and Optimization of Covalent VHL-Targeted Sulfonyl Fluoride PROTACs” (Journal of Medicinal Chemistry, 2024).

Assay [1] addresses T1, BRD4 (HEK293 HiBiT-BRD4 Cln3 cells) (Homo sapiens, UniProt O60885).
T1 construct: GSK; host or cells: HEK293 HiBiT-BRD4 Cln3
The assay can be described thus: BRD4 HiBiT degradation assay. The format is cell-based. Here is the method:
Figure 3 (A) Structure of BRD-SF2. […] BRD4 and loading control GAPDH levels were visualized by Western blotting. […] (D) HEK293 HiBiT-BRD4 Cln3 cells were treated with epoxomicin (1 μM) for 3 h, followed by the respective PROTAC or VHL-SF2 dose-dependently (75–0.01 μM) for 18 h. […] (E) HEK293 HiBiT-BRD4 Cln3 cells were treated with MLN4924 (1 μM) for 3 h, followed by the respective PROTAC or VHL-SF2 dose-dependently (75–0.01 μM) for 18 h. […] (F) Structure of AR-VHL-SF2 and AR2-VHL-SF2. […] The data the show mean ± SEM (n = 3).
(§1) Cellular BRD4/AR HiBiT assay
The HiBiT tagged cells were seeded at 10,000 cells per well in a 384-well plate (Thermo Scientific, 164610) at 25 µL per well in DMEM media containing 10% FBS and incubated overnight. Compounds were dispensed using D300e Digital Dispenser (HP) and normalized to 0.1% DMSO. Cells were pre-treated with Epoxomicin or MLN4924 for 3 h before treatment or directly with the PROTAC degraders for 18 or 24 h. Nano -Glo HiBiT lytic detection assay was performed as described in the manufacturer protocol (Promega). 25 µL of premixed detection reagent was added to each well of the 384 well assay plate and incubated for 15 min on an orbital shaker (at 600 RPM), and luminescence was read using a PHERAstar FS plate reader (BMG Labtech). Corresponding background RLU values were subtracted from DMSO control values and the percentage of protein (%) of were then calculated against […]
(§2) DMSO-treated controls. […]
In general terms: The HiBiT peptide binds its large partner to form an active luciferase.

Assay [2] addresses T2, AR (AR-HiBiT LNCaP cells) (Homo sapiens, UniProt P10275, T878A).
T2 construct: host or cells: AR-HiBiT KI LNCaP
T2 sequence (P10275 1-920 T878A): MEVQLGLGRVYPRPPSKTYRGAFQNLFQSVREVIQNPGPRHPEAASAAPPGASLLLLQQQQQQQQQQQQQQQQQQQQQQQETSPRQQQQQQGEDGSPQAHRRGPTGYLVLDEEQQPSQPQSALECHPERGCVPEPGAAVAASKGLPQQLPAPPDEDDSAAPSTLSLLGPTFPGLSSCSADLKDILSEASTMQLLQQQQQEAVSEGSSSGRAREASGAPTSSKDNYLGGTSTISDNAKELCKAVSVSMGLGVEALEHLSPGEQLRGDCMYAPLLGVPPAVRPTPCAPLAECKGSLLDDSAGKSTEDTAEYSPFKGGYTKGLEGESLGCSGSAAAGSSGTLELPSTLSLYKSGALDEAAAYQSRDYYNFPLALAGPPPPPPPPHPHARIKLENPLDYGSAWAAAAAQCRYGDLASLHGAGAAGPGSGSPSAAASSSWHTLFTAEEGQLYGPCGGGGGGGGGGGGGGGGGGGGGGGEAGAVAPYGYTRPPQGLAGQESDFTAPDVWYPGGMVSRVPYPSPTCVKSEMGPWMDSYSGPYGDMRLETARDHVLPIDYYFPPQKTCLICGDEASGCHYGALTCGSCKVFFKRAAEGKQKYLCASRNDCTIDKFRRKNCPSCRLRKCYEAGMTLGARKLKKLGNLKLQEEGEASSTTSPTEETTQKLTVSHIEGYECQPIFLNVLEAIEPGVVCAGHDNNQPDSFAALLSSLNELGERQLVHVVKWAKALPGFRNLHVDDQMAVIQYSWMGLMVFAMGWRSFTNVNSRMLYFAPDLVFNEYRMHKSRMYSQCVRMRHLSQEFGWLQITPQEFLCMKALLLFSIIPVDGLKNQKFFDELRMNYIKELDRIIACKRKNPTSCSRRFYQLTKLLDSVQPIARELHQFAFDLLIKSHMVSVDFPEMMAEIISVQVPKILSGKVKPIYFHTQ
Description: AR HiBiT degradation assay. Format: cell-based. Particulars: read-out: AR DC50. As to the method:
as §1
The HiBiT tagged cells were seeded at 10,000 cells per well in a 384-well plate (Thermo Scientific, 164610) at 25 µL per well in DMEM media containing 10% FBS and incubated overnight. Compounds were dispensed using D300e Digital Dispenser (HP) and normalized to 0.1% DMSO. Cells were pre-treated with Epoxomicin or MLN4924 for 3 h before treatment […]
Nano -Glo HiBiT lytic detection assay was performed as described in the manufacturer protocol (Promega). 25 µL of premixed detection reagent was added to each well of the 384 well assay plate and incubated for 15 min on an orbital shaker (at 600 RPM), and luminescence was read using a PHERAstar FS plate reader (BMG Labtech). Corresponding background RLU values were subtracted from DMSO control values and the percentage of protein (%) of were then calculated against […]
as §2
1:1000 WB), Tubulin (Sigma #4967S 1:5000 WB).

What is called DC50 is the midpoint of the concentration-degradation curve.

As for `Cc1cc([C@H](C(=O)N2C[C@H](S(=O)(=O)F)C[C@H]2C(=O)N[C@@H](CC(=O)OC(C)(C)C)c2ccc(-c3scnc3C)cc2)C(C)C)on1` [VHL-SF2, tert-Butyl (S)-3-((2S,4R)-4-(Fluorosulfonyl)-1-((R)-3-methyl-2-(3-methylisoxazol-5-yl)butanoyl)pyrr-olidine-2-carboxamido)-3-(4-(4-methylthiazol-5-yl)phenyl)propanoate], in assay [1] (18 h, 75 μM-1 pM), the “effect on BRD4 levels” value is “did not affect BRD4 levels”. Moreover, the DC50 in assay [1] (read-out: BRD4 DC50) and in assay [2] was above 75 µM each time.
